Experimental data: PubChem BioAssay AID330 (DTP/NCI, 2004)
“And” between values parts separate entries of the source, which are not always exact repeats. Identical values can stand only once. Toxic doses and inconclusive results are not listed. Peptide text beside a SMILES is read from it. * marks the point of attachment. Cbz = O=C(OCc1ccccc1)*; OBn = c1ccc(CO*)cc1

System: P388 leukemia ip, CD2F1 mice, survival T/C
Test: NCI In Vivo Anticancer Drug Screen. Data for tumor model P388 Leukemia (intraperitoneal) in CD2F1 (CDF1) mice
Settings: endpoint: median survival time, higher = longer survival
Procedure, shortened: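 Mice carrying the transplanted tumor received test compound or vehicle. Survival was recorded in each group, and the value is the treated-group measurement divided by that of the vehicle-treated control group.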

[1] = dose: 200.0 mg/kg/injection, schedule: Q01DX005 (ip), vehicle: saline with Tween-80
[2] = dose: 100.0 mg/kg/injection, schedule: Q04DX003 (ip), vehicle: water
[3] = dose: 50.0 mg/kg/injection, schedule: Q01DX009 (ip), vehicle: saline with Tween-80
[4] = dose: 100.0 mg/kg/injection, schedule: Q01DX009 (ip), vehicle: saline with Tween-80
[5] = dose: 200.0 mg/kg/injection, schedule: Q01DX009 (ip), vehicle: saline with Tween-80
[6] = dose: 100.0 mg/kg/injection, schedule: Q01DX009 (ip), vehicle: saline
[7] = dose: 200.0 mg/kg/injection, schedule: Q01DX009 (ip), vehicle: saline
[8] = dose: 50.0 mg/kg/injection, schedule: Q01DX005 (ip), vehicle: Klucel (hydroxypropylcellulose) (HPC)
[9] = dose: 100.0 mg/kg/injection, schedule: Q01DX005 (ip), vehicle: Klucel (hydroxypropylcellulose) (HPC)
[10] = dose: 200.0 mg/kg/injection, schedule: Q01DX005 (ip), vehicle: Klucel (hydroxypropylcellulose) (HPC)
[11] = dose: 50.0 mg/kg/injection, schedule: Q01DX009 (ip), vehicle: saline
[12] = dose: 100.0 mg/kg/injection, schedule: Q04DX003 (ip), vehicle: saline with Tween-80
[13] = dose: 200.0 mg/kg/injection, schedule: Q04DX003 (ip), vehicle: saline with Tween-80
[14] = dose: 400.0 mg/kg/injection, schedule: Q04DX003 (ip), vehicle: saline with Tween-80
[15] = dose: 100.0 mg/kg/injection, schedule: Q04DX003 (ip), vehicle: Klucel (hydroxypropylcellulose) (HPC)
[16] = dose: 200.0 mg/kg/injection, schedule: Q04DX003 (ip), vehicle: Klucel (hydroxypropylcellulose) (HPC)
[17] = dose: 400.0 mg/kg/injection, schedule: Q04DX003 (ip), vehicle: Klucel (hydroxypropylcellulose) (HPC)

With `CCC12NC(=O)NC1(C)NC(=O)N2` (stereo not given) the T/C (dose: 6.25 mg/kg/injection, schedule: Q01DX009 (ip), vehicle: saline with Tween-80) was 91 % of control, the T/C (dose: 12.5 mg/kg/injection, schedule: Q01DX009 (ip), vehicle: saline with Tween-80) was 91 % of control and the T/C (dose: 16.5 mg/kg/injection, schedule: Q01DX009 (ip), vehicle: saline with Tween-80) was 100 % of control.
For `CNC(=O)OCc1c(COC(=O)NC)c(C)n(-c2ccc(F)cc2)c1C`, the T/C (dose: 25.0 mg/kg/injection, schedule: Q01DX009 (ip), vehicle: saline) was 155 % of control.
For `[Cl][Cu][Cl].[O-][n+]1c2ccccc2nc2ccccc21`, the T/C (dose: 12.5 mg/kg/injection, schedule: Q04DX003 (ip), vehicle: saline with Tween-80) was 92 % of control and the T/C (dose: 25.0 mg/kg/injection, schedule: Q04DX003 (ip), vehicle: saline with Tween-80) was 103 % of control.
With `O=C1c2cccc3cccc(c23)C(=O)N1c1ncn[nH]1` the T/C (dose: 6.25 mg/kg/injection, schedule: Q01DX005 (ip), vehicle: saline with Tween-80) was 87 % of control, the T/C (dose: 12.5 mg/kg/injection, schedule: Q01DX005 (ip), vehicle: saline with Tween-80) was 86 % of control and the T/C [1] was 88 % of control.
In the case of `COc1cccc2c1C(=O)c1c(O)c3c(c(O)c1C2=O)C[C@@](O)(C(O)O)C[C@@H]3OC1CC(N)C(O)C(C)O1` (stereo not given in full), the T/C (dose: 2.0 mg/kg/injection, schedule: Q01DX009 (ip), vehicle: water) is reported as 168 % of control, the T/C (dose: 4.0 mg/kg/injection, schedule: Q01DX009 (ip), vehicle: water) is reported as 154 % of control and the T/C [2] is reported as 109 % of control and 121 % of control.
For `Nc1ccn(COCCOCc2ccccc2)c(=O)n1`, the T/C (dose: 100.0 mg/kg/injection, schedule: Q04DX002 (ip), vehicle: Klucel (hydroxypropylcellulose) (HPC)) was 98 % of control, the T/C (dose: 200.0 mg/kg/injection, schedule: Q04DX002 (ip), vehicle: Klucel (hydroxypropylcellulose) (HPC)) was 100 % of control and the T/C (dose: 400.0 mg/kg/injection, schedule: Q04DX002 (ip), vehicle: Klucel (hydroxypropylcellulose) (HPC)) was 99 % of control.
With `CSc1nc2ccc(N3C(=O)C=CC3=O)cc2s1` the T/C (dose: 3.12 mg/kg/injection, schedule: Q01DX009 (ip), vehicle: Klucel (hydroxypropylcellulose) (HPC)) was 102 % of control, the T/C (dose: 6.25 mg/kg/injection, schedule: Q01DX009 (ip), vehicle: Klucel (hydroxypropylcellulose) (HPC)) was 105 % of control and the T/C (dose: 12.5 mg/kg/injection, schedule: Q01DX009 (ip), vehicle: Klucel (hydroxypropylcellulose) (HPC)) was 101 % of control.
`O=C1CCCC/C1=C\N(c1ccccc1)c1ccccc1` was tested, and the T/C [3] was 106 % of control, the T/C [4] was 98 % of control and the T/C [5] was 95 % of control.
With `O=C(N/N=C/c1ccccc1O)c1cccc([N+](=O)[O-])c1` the T/C [6] was 99 % of control, the T/C [7] was 100 % of control and the T/C (dose: 400.0 mg/kg/injection, schedule: Q01DX009 (ip), vehicle: saline) was 91 % of control.
`O=[N+]([O-])c1cccc(C(Nc2nncs2)Nc2nncs2)c1` was tested, and the T/C [8] was 106 % of control and 96 % of control, the T/C [9] was 95 % of control and the T/C [10] was 94 % of control. The T/C (dose: 400.0 mg/kg/injection, schedule: Q01DX005 (ip), vehicle: Klucel (hydroxypropylcellulose) (HPC)) was 96 % of control.
With `COc1ccc(N(CN2C(=O)CCC2=O)CS(=O)(=O)c2ccc(C)cc2)cc1` the T/C (dose: 60.0 mg/kg/injection, schedule: Q01DX005 (ip), vehicle: Klucel (hydroxypropylcellulose) (HPC)) was 100 % of control, the T/C (dose: 120.0 mg/kg/injection, schedule: Q01DX005 (ip), vehicle: Klucel (hydroxypropylcellulose) (HPC)) was 100 % of control and the T/C (dose: 240.0 mg/kg/injection, schedule: Q01DX005 (ip), vehicle: Klucel (hydroxypropylcellulose) (HPC)) was 100 % of control.
With `Cn1c(=O)ccc2c3ncccc3c(C(F)(F)F)cc21` the T/C (dose: 100.0 mg/kg/injection, schedule: Q01DX001 (ip), vehicle: saline with Tween-80) was 99 % of control, the T/C (dose: 200.0 mg/kg/injection, schedule: Q01DX001 (ip), vehicle: saline with Tween-80) was 100 % of control and the T/C (dose: 400.0 mg/kg/injection, schedule: Q01DX001 (ip), vehicle: saline with Tween-80) was 101 % of control.
In the case of `CC1=C(C(=O)O)CCC1(C)C`, the T/C (dose: 100.0 mg/kg/injection, schedule: Q04DX002 (ip), vehicle: saline with Tween-80) is reported as 98 % of control, the T/C (dose: 200.0 mg/kg/injection, schedule: Q04DX002 (ip), vehicle: saline with Tween-80) is reported as 101 % of control and the T/C (dose: 400.0 mg/kg/injection, schedule: Q04DX002 (ip), vehicle: saline with Tween-80) is reported as 104 % of control.
With `O=C(O)C1CSC(c2cccnc2)N1` (stereo not given) the T/C [11] was 89 % of control and the T/C [6] was 90 % of control.
With `COc1ccc(CCN2COc3ccc4ccc(=O)oc4c3C2)cc1OC` the T/C [4] was 100 % of control, the T/C [12] was 110 % of control and the T/C [13] was 115 % of control. For the same molecule, the T/C (dose: 400.0 mg/kg/injection, schedule: Q01DX009 (ip), vehicle: saline with Tween-80) was 100 % of control and the T/C [14] was 110 % of control.
For `CCCCCCCCCCCCN1C(=O)[N+](C)(C)N=C1[O-]`, the T/C (dose: 100.0 mg/kg/injection, schedule: Q04DX003 (ip), vehicle: saline) was 113 % of control, the T/C (dose: 200.0 mg/kg/injection, schedule: Q04DX003 (ip), vehicle: saline) was 105 % of control and the T/C (dose: 400.0 mg/kg/injection, schedule: Q04DX003 (ip), vehicle: saline) was 105 % of control.
With `CC(=O)c1c(O)cc(C)n(Cc2ccccc2)c1=O` the T/C (dose: 50.0 mg/kg/injection, schedule: Q01DX005 (ip), vehicle: saline with Tween-80) was 99 % of control, the T/C (dose: 100.0 mg/kg/injection, schedule: Q01DX005 (ip), vehicle: saline with Tween-80) was 100 % of control and the T/C [1] was 99 % of control.
For `CCOC(=O)Cn1ncnn1`, the T/C [15] was 103 % of control, the T/C [16] was 100 % of control and the T/C [17] was 102 % of control.
`CCN(CC)Cc1cc(C)c(O)c(N=Nc2ccc([N+](=O)[O-])c(OC)c2)c1C` was tested, and the T/C [12] was 92 % of control, the T/C [13] was 99 % of control and the T/C [14] was 119 % of control.
For `Nc1ccc(S(=O)(=O)F)cc1Cl`, the T/C [11] was 100 % of control, the T/C [6] was 97 % of control and the T/C [7] was 111 % of control.
For `NCCCCC(NC(=O)OCc1ccccc1)C(=O)NC(CCCCN)C(=O)NC(CCCCN)C(=O)NC(Cc1c[nH]c2ccccc12)C(=O)OCc1ccccc1` (stereo not given) (Cbz-KKKW-OBn; configuration not given here), the T/C [8] was 100 % of control, the T/C [9] was 96 % of control and the T/C [10] was 100 % of control.
`COc1cccc2c1C(=O)c1c(O)c3c(c(O)c1C2=O)CC1(O)CC3OC1(C)OC` (stereo not given) was tested, and the T/C (dose: 1.56 mg/kg/injection, schedule: Q01DX009 (ip), vehicle: other) was 104 % of control, the T/C (dose: 3.13 mg/kg/injection, schedule: Q01DX009 (ip), vehicle: other) was 100 % of control and the T/C (dose: 6.25 mg/kg/injection, schedule: Q01DX009 (ip), vehicle: other) was 96 % of control. The T/C (dose: 12.5 mg/kg/injection, schedule: Q01DX009 (ip), vehicle: other) was 106 % of control, the T/C (dose: 25.0 mg/kg/injection, schedule: Q01DX009 (ip), vehicle: other) was 106 % of control and the T/C (dose: 25.0 mg/kg/injection, schedule: Q04DX003 (ip), vehicle: water) was 101 % of control. For the same molecule, the T/C (dose: 50.0 mg/kg/injection, schedule: Q04DX003 (ip), vehicle: water) was 100 % of control, the T/C [2] was 100 % of control and the T/C (dose: 200.0 mg/kg/injection, schedule: Q04DX003 (ip), vehicle: water) was 103 % of control. For the same molecule, the T/C (dose: 400.0 mg/kg/injection, schedule: Q04DX003 (ip), vehicle: water) was 99 % of control.
With `CC(CO)NC(=O)C1C=C2c3cccc4[nH]cc(c34)CC2N(C)C1` (stereo not given) the T/C (dose: 9.0 mg/kg/injection, schedule: Q01DX009 (ip), vehicle: saline) was 97 % of control, the T/C (dose: 18.0 mg/kg/injection, schedule: Q01DX009 (ip), vehicle: saline) was 91 % of control and the T/C (dose: 44.5 mg/kg/injection, schedule: Q01DX009 (ip), vehicle: saline) was 97 % of control. The T/C (dose: 89.0 mg/kg/injection, schedule: Q01DX009 (ip), vehicle: saline) was 97 % of control and the T/C (dose: 178.0 mg/kg/injection, schedule: Q01DX009 (ip), vehicle: saline) was 106 % of control.
`COC(=O)C1=C/CCCN/C=C\1C(=O)OC` was tested, and the T/C [15] was 97 % of control, the T/C [16] was 97 % of control and the T/C [17] was 98 % of control.
`Clc1cc2nc[nH]c2cc1Cl` was tested, and the T/C [3] was 101 % of control and the T/C [4] was 90 % of control.
In the case of `CC(=O)c1ccc(O)c(CN(CCC#N)CCC#N)c1O`, the T/C [3] is reported as 96 % of control, the T/C [4] is reported as 89 % of control and the T/C [5] is reported as 90 % of control.
